Active and inactive are the calls of the source. No cut-off for these calls is given here.
Assays:
Salmonella typhimurium = experiment: Antibacterial activity against Salmonella typhimurium KCTC 1926 assessed as reduction in bacterial growth incubated for 18 hrs by spectrophotometry based microtiter broth dilution method; type: functional, Salmonella enterica subsp. enterica serovar Typhimurium; details: Salmonella enterica, KCTC 1926, 18 h
[1] = tested on: Staphylococcus epidermidis; experiment: Antibacterial activity against Staphylococcus epidermidis KCTC 1917 assessed as reduction in bacterial growth incubated for 18 hrs by spectrophotometry based microtiter broth dilution method; type: functional; details: KCTC 1917, 18 h
RAW264.7 [2] = experiment: Cytotoxicity against mouse RAW264.7 cells assessed as reduction in cell viability at upto 16 uM incubated for 48 hrs by MTT assay; type: cell-based; details: raw264.7, 48 h
RAW264.7 [3] = experiment: Antiinflammatory activity in mouse RAW264.7 cells assessed as reduction in LPS-induced NO production at 4 uM incubated for 24 hrs by Griess reagent based assay relative to control; type: functional; details: RAW264.7, 24 h
Lipopolysaccharide (LPS) = experiment: Displacement of BODIPY-TR-cadaverine from Escherichia coli O111:B4 LPS by fluorescence spectrophotometry
Staphylococcus aureus [4] = experiment: Potency index, ratio of MIC of LL-37 to MIC of compound for antibacterial activity against methicillin-resistant Staphylococcus aureus CCARM 3089 assessed as reduction in bacterial growth incubated for 18 hrs by spectrophotometry based microtiter broth dilution method; type: functional
Staphylococcus aureus [5] = experiment: Potency index, ratio of MIC of LL-37 to MIC of compound for antibacterial activity against methicillin-resistant Staphylococcus aureus CCARM 3090 assessed as reduction in bacterial growth incubated for 18 hrs by spectrophotometry based microtiter broth dilution method; type: functional
Pseudomonas aeruginosa [6] = experiment: Potency index, ratio of MIC of LL-37 to MIC of compound for antibacterial activity against multidrug-resistant Pseudomonas aeruginosa CCARM 2095 assessed as reduction in bacterial growth incubated for 18 hrs by spectrophotometry based microtiter broth dilution method; type: functional
Staphylococcus aureus [7] = experiment: Potency index, ratio of MIC of melittin to MIC of compound for antibacterial activity against methicillin-resistant Staphylococcus aureus CCARM 3090 assessed as reduction in bacterial growth incubated for 18 hrs by spectrophotometry based microtiter broth dilution method; type: functional
Staphylococcus aureus [8] = experiment: Potency index, ratio of MIC of melittin to MIC of compound for antibacterial activity against methicillin-resistant Staphylococcus aureus CCARM 3095 assessed as reduction in bacterial growth incubated for 18 hrs by spectrophotometry based microtiter broth dilution method; type: functional
Pseudomonas aeruginosa [9] = experiment: Potency index, ratio of MIC of melittin to MIC of compound for antibacterial activity against multidrug-resistant Pseudomonas aeruginosa CCARM 2095 assessed as reduction in bacterial growth incubated for 18 hrs by spectrophotometry based microtiter broth dilution method; type: functional
Pseudomonas aeruginosa [10] = experiment: Potency index, ratio of MIC of melittin to MIC of compound for antibacterial activity against multidrug-resistant Pseudomonas aeruginosa CCARM 2109 assessed as reduction in bacterial growth incubated for 18 hrs by spectrophotometry based microtiter broth dilution method; type: functional
Escherichia coli [11] = experiment: Antibacterial activity against Escherichia coli KCTC 1682 assessed as reduction in bacterial growth incubated for 18 hrs in presence of 1 mM MgCl2 by spectrophotometry based microtiter broth dilution method; type: functional; details: KCTC 1682, 18 h
Escherichia coli [12] = experiment: Antibacterial activity against Escherichia coli KCTC 1682 assessed as reduction in bacterial growth incubated for 18 hrs in presence of 2.5 mM CaCl2 by spectrophotometry based microtiter broth dilution method; type: functional; details: KCTC 1682, 18 h
Staphylococcus aureus [13] = experiment: Antibacterial activity against Staphylococcus aureus KCTC 1621 assessed as reduction in bacterial growth incubated for 18 hrs in presence of 150 mM NaCl by spectrophotometry based microtiter broth dilution method; type: functional; details: KCTC 1621, 18 h
Staphylococcus aureus [14] = experiment: Antibacterial activity against Staphylococcus aureus KCTC 1621 assessed as reduction in bacterial growth incubated for 18 hrs in presence of 4.5 mM KCl by spectrophotometry based microtiter broth dilution method; type: functional; details: KCTC 1621, 18 h
Staphylococcus aureus [15] = experiment: Antibacterial activity against Staphylococcus aureus KCTC 1621 assessed as reduction in bacterial growth incubated for 18 hrs in presence of 6 uM NH4Cl by spectrophotometry based microtiter broth dilution method; type: functional; details: KCTC 1621, 18 h
Staphylococcus aureus [16] = experiment: Antibacterial activity against Staphylococcus aureus KCTC 1621 assessed as reduction in bacterial growth incubated for 18 hrs in presence of 2.5 mM CaCl2 by spectrophotometry based microtiter broth dilution method; type: functional; details: KCTC 1621, 18 h
Staphylococcus aureus [17] = experiment: Antibacterial activity against Staphylococcus aureus KCTC 1621 assessed as reduction in bacterial growth incubated for 18 hrs in presence of […] by spectrophotometry based microtiter broth dilution method; type: functional; details: KCTC 1621, 18 h
Staphylococcus aureus [18] = experiment: Antibacterial activity against methicillin-resistant Staphylococcus aureus CCARM 3089 assessed as reduction in bacterial growth at 4 uM incubated for 72 hrs in presence of chloramphenicol by spectrophotometry; type: functional; details: CCARM 3089, 72 h
Staphylococcus aureus [19] = experiment: Antibacterial activity against methicillin-resistant Staphylococcus aureus CCARM 3089 assessed as reduction in bacterial growth at 4 uM incubated for 72 hrs in presence of ciprofloxacin by spectrophotometry; type: functional; details: CCARM 3089, 72 h
Pseudomonas aeruginosa [20] = experiment: Fractional inhibitory concentration, ratio of MIC of compound in presence of […] uM ciprofloxacin to MIC of ciprofloxacin for antibacterial activity against multidrug-resistant Pseudomonas aeruginosa CCARM 2095; type: functional
Pseudomonas aeruginosa [21] = experiment: Fractional inhibitory concentration, ratio of MIC of compound in presence of ciprofloxacin to MIC of compound for antibacterial activity against multidrug-resistant Pseudomonas aeruginosa CCARM 2095; type: functional
Pseudomonas aeruginosa [22] = experiment: Fractional inhibitory concentration, ratio of MIC of compound in presence of oxacillin to MIC of compound for antibacterial activity against multidrug-resistant Pseudomonas aeruginosa CCARM 2095; type: functional
Pseudomonas aeruginosa [23] = experiment: Fractional inhibitory concentration index, sum of ratio of MIC of compound in presence of […] and ratio of MIC of compound in presence of ciprofloxacin to MIC of compound for antibacterial activity against multidrug-resistant Pseudomonas aeruginosa CCARM 2095; type: functional
Escherichia coli [24] = experiment: Induction of membrane integrity disruption in Escherichia coli at 2 times of MIC by propidium iodide staining based flow cytometry relative to control (reference value: 2.97 %); type: functional
RAW264.7 [25] = experiment: Antiinflammatory activity in mouse RAW264.7 cells assessed as reduction in LPS-induced iNOS gene expression at 4 uM incubated for 3 hrs by qRT-PCR analysis; type: functional, cell-based
RAW264.7 [26] = experiment: Antiinflammatory activity in mouse RAW264.7 cells assessed as reduction in LPS-induced TNFalpha gene expression at 8 uM incubated for 6 hrs by qRT-PCR analysis; type: functional, cell-based
Pseudomonas aeruginosa [27] = experiment: Antibacterial activity against multidrug-resistant Pseudomonas aeruginosa CCARM 2095 assessed as reduction in bacterial growth at 4 uM incubated for 72 hrs in presence of chloramphenicol by spectrophotometry; type: functional; details: CCARM 2095, 72 h
Pseudomonas aeruginosa [28] = experiment: Antibacterial activity against multidrug-resistant Pseudomonas aeruginosa CCARM 2095 assessed as reduction in bacterial growth at 4 uM incubated for 72 hrs in presence of oxacillin by spectrophotometry; type: functional; details: CCARM 2095, 72 h
Staphylococcus aureus [29] = experiment: Antibacterial activity against methicillin-resistant Staphylococcus aureus CCARM 3089 assessed as reduction in bacterial growth at 8 uM incubated for 72 hrs in presence of ciprofloxacin by spectrophotometry; type: functional; details: CCARM 3089, 72 h
Staphylococcus aureus [30] = experiment: Antibacterial activity against methicillin-resistant Staphylococcus aureus CCARM 3089 assessed as reduction in bacterial growth at 8 uM incubated for 72 hrs in presence of oxacillin by spectrophotometry; type: functional; details: CCARM 3089, 72 h

Compound: H-LVIRWVRAGYKLYRAIKKK-NH2
- MIC (Salmonella typhimurium): 2 µM
- MIC [1]: 4 µM
- Activity (RAW264.7 [2]): Non-Toxic
- inhibition at 4 µM (RAW264.7 [3]): 94.2%
- inhibition (Lipopolysaccharide (LPS)): Dose-dependent effect
- Ratio (Staphylococcus aureus [4]): 2 - 8
- Ratio (Staphylococcus aureus [5]): 2 - 8
- Ratio (Pseudomonas aeruginosa [6]): 2 - 8
- Ratio (Staphylococcus aureus [7]): 2 - 8
- Ratio (Staphylococcus aureus [8]): 2 - 8
- Ratio (Pseudomonas aeruginosa [9]): 2 - 8
- Ratio (Pseudomonas aeruginosa [10]): 2 - 8
- MIC (Escherichia coli [11]): 4 µM
- MIC (Escherichia coli [12]): 4 µM
- MIC (Staphylococcus aureus [13]): 2 µM
- MIC (Staphylococcus aureus [14]): 2 µM
- MIC (Staphylococcus aureus [15]): 2 µM
- MIC (Staphylococcus aureus [16]): 2 µM
- MIC (Staphylococcus aureus [17]): 4 µM
- MIC (Staphylococcus aureus [18]): 0.5 µM
- MIC (Staphylococcus aureus [19]): 0.5 µM
- FIC (Pseudomonas aeruginosa [20]): 0.125
- FIC (Pseudomonas aeruginosa [21]): 0.5
- FIC (Pseudomonas aeruginosa [22]): 0.25
- fractional inhibitory concentration index (FICI) (Pseudomonas aeruginosa [23]): 0.625
- Activity (Escherichia coli [24]): 68.98%

Compound: CC[C@H](C)[C@H](NC(=O)[C@H](CCCCN)NC(=O)[C@H](CCC(=O)O)NC(=O)[C@H](CCCCN)NC(=O)[C@H](CO)NC(=O)[C@H](CCCCN)NC(=O)[C@H](CCCNC(=N)N)NC(=O)[C@H](Cc1ccccc1)NC(=O)[C@H](Cc1ccccc1)NC(=O)[C@H](CC(=O)O)NC(=O)CNC(=O)[C@H](CC(C)C)NC(=O)[C@@H](N)CC(C)C)C(=O)NCC(=O)N[C@@H](CCCCN)C(=O)N[C@@H](CCC(=O)O)C(=O)N[C@@H](Cc1ccccc1)C(=O)N[C@@H](CCCCN)C(=O)N[C@@H](CCCNC(=N)N)C(=O)N[C@H](C(=O)N[C@H](C(=O)N[C@@H](CCC(N)=O)C(=O)N[C@@H](CCCNC(=N)N)C(=O)N[C@H](C(=O)N[C@@H](CCCCN)C(=O)N[C@@H](CC(=O)O)C(=O)N[C@@H](Cc1ccccc1)C(=O)N[C@@H](CC(C)C)C(=O)N[C@@H](CCCNC(=N)N)C(=O)N[C@@H](CC(N)=O)C(=O)N[C@@H](CC(C)C)C(=O)N[C@H](C(=O)N1CCC[C@H]1C(=O)N[C@@H](CCCNC(=N)N)C(=O)N[C@H](C(=O)N[C@@H](CCC(=O)O)C(=O)N[C@@H](CO)C(=O)O)[C@@H](C)O)C(C)C)[C@@H](C)CC)C(C)C)[C@@H](C)CC [CATHELICIDIN]
- inhibition (RAW264.7 [25]): Active
- inhibition (RAW264.7 [26]): Active
- MIC (Pseudomonas aeruginosa [27]): 2 µM
- MIC (Pseudomonas aeruginosa [28]): 4 µM
- MIC (Staphylococcus aureus [29]): 8 µM
- MIC (Staphylococcus aureus [30]): 2 µM
- FIC (Pseudomonas aeruginosa [20]): 0.25
- FIC (Pseudomonas aeruginosa [21]): 0.5
- FIC (Pseudomonas aeruginosa [22]): 1
- fractional inhibitory concentration index (FICI) (Pseudomonas aeruginosa [23]): 0.75
- Activity (Escherichia coli [24]): 55.5%
